± gives the expanded uncertainty stated by the source.
Assay: xn = mol fraction of the nth substance listed
Settings: Gas, Burnett expansion method

## C=C(F)C(F)(F)F [2,3,3,3-tetrafluoro-1-propene] + FCF
333.59 K, 860.21 kPa, x2 = 0.698
  mass density: 23.99 ± 0.22 kg/m3
333.59 K, 1119 kPa, x2 = 0.259
  mass density: 46.7 ± 0.37 kg/m3
333.59 K, 1128.1 kPa, x2 = 0.449
  mass density: 40.52 ± 0.38 kg/m3
333.59 K, 1537.9 kPa, x2 = 0.259
  mass density: 70.09 ± 0.75 kg/m3
333.6 K, 552.32 kPa, x2 = 0.874
  mass density: 12.52 ± 0.15 kg/m3
333.6 K, 589.81 kPa, x2 = 0.698
  mass density: 15.97 ± 0.15 kg/m3
333.61 K, 804.94 kPa, x2 = 0.874
  mass density: 18.8 ± 0.22 kg/m3
333.61 K, 1164.8 kPa, x2 = 0.874
  mass density: 28.24 ± 0.33 kg/m3
333.61 K, 1308.2 kPa, x2 = 0.119
  mass density: 63.18 ± 0.4 kg/m3
333.64 K, 1653.6 kPa, x2 = 0.874
  mass density: 42.42 ± 0.5 kg/m3
338.52 K, 549.73 kPa, x2 = 0.449
  mass density: 17.96 ± 0.16 kg/m3
338.52 K, 1260 kPa, x2 = 0.698
  mass density: 36.03 ± 0.33 kg/m3
338.52 K, 1772.2 kPa, x2 = 0.698
  mass density: 54.11 ± 0.52 kg/m3
338.52 K, 2408.6 kPa, x2 = 0.698
  mass density: 81.28 ± 0.86 kg/m3
338.53 K, 875.76 kPa, x2 = 0.698
  mass density: 23.99 ± 0.22 kg/m3
338.53 K, 960.84 kPa, x2 = 0.119
  mass density: 42.01 ± 0.25 kg/m3
338.53 K, 1150.8 kPa, x2 = 0.449
  mass density: 40.51 ± 0.37 kg/m3
338.53 K, 2177.3 kPa, x2 = 0.449
  mass density: 91.55 ± 0.98 kg/m3
338.54 K, 554.13 kPa, x2 = 0.259
  mass density: 20.7 ± 0.17 kg/m3
338.54 K, 801.95 kPa, x2 = 0.449
  mass density: 26.97 ± 0.24 kg/m3
338.54 K, 1788.2 kPa, x2 = 0.119
  mass density: 94.94 ± 0.74 kg/m3
338.54 K, 2337.3 kPa, x2 = 0.874
  mass density: 63.7 ± 0.73 kg/m3
338.54 K, 3099.5 kPa, x2 = 0.698
  mass density: 122 ± 1.5 kg/m3
338.54 K, 3099.9 kPa, x2 = 0.874
  mass density: 96.05 ± 1.2 kg/m3
338.54 K, 3850.5 kPa, x2 = 0.874
  mass density: 144.78 ± 1.7 kg/m3
338.55 K, 671.73 kPa, x2 = 0.119
  mass density: 27.97 ± 0.15 kg/m3
338.55 K, 1615.3 kPa, x2 = 0.449
  mass density: 60.93 ± 0.61 kg/m3
338.55 K, 1689.4 kPa, x2 = 0.874
  mass density: 42.41 ± 0.5 kg/m3
338.56 K, 599.87 kPa, x2 = 0.698
  mass density: 15.97 ± 0.15 kg/m3
338.56 K, 803.81 kPa, x2 = 0.259
  mass density: 31.09 ± 0.23 kg/m3
338.56 K, 1143.1 kPa, x2 = 0.259
  mass density: 46.69 ± 0.37 kg/m3
338.56 K, 1187 kPa, x2 = 0.874
  mass density: 28.23 ± 0.33 kg/m3
338.56 K, 1577.4 kPa, x2 = 0.259
  mass density: 70.08 ± 0.72 kg/m3
338.56 K, 2083.1 kPa, x2 = 0.259
  mass density: 105.4 ± 1.1 kg/m3
338.57 K, 819.08 kPa, x2 = 0.874
  mass density: 18.8 ± 0.22 kg/m3
338.57 K, 1339.9 kPa, x2 = 0.119
  mass density: 63.15 ± 0.4 kg/m3
338.61 K, 561.65 kPa, x2 = 0.874
  mass density: 12.52 ± 0.15 kg/m3
343.46 K, 1811.6 kPa, x2 = 0.698
  mass density: 54.1 ± 0.52 kg/m3
343.47 K, 558.86 kPa, x2 = 0.449
  mass density: 17.95 ± 0.16 kg/m3
343.47 K, 2473.8 kPa, x2 = 0.698
  mass density: 81.25 ± 0.84 kg/m3
343.48 K, 1650.8 kPa, x2 = 0.449
  mass density: 60.9 ± 0.6 kg/m3
343.48 K, 3195 kPa, x2 = 0.874
  mass density: 95.98 ± 1.2 kg/m3
343.49 K, 609.66 kPa, x2 = 0.698
  mass density: 15.97 ± 0.15 kg/m3
343.49 K, 980.04 kPa, x2 = 0.119
  mass density: 42 ± 0.25 kg/m3
343.49 K, 1173.6 kPa, x2 = 0.449
  mass density: 40.5 ± 0.37 kg/m3
343.49 K, 1284.8 kPa, x2 = 0.698
  mass density: 36.02 ± 0.33 kg/m3
343.5 K, 815.99 kPa, x2 = 0.449
  mass density: 26.96 ± 0.24 kg/m3
343.5 K, 1724.4 kPa, x2 = 0.874
  mass density: 42.4 ± 0.5 kg/m3
343.5 K, 1840.8 kPa, x2 = 0.119
  mass density: 94.9 ± 0.83 kg/m3
343.5 K, 2238.7 kPa, x2 = 0.449
  mass density: 91.51 ± 1.1 kg/m3
343.5 K, 2312 kPa, x2 = 0.119
  mass density: 142.7 ± 1.5 kg/m3
343.5 K, 3209.6 kPa, x2 = 0.698
  mass density: 121.97 ± 1.5 kg/m3
343.51 K, 683.81 kPa, x2 = 0.119
  mass density: 27.96 ± 0.15 kg/m3
343.51 K, 891.35 kPa, x2 = 0.698
  mass density: 23.98 ± 0.22 kg/m3
343.51 K, 1370.9 kPa, x2 = 0.119
  mass density: 63.13 ± 0.39 kg/m3
343.51 K, 1616.3 kPa, x2 = 0.259
  mass density: 70.08 ± 0.7 kg/m3
343.51 K, 2395 kPa, x2 = 0.874
  mass density: 63.68 ± 0.73 kg/m3
343.51 K, 2864.8 kPa, x2 = 0.449
  mass density: 137.45 ± 1.7 kg/m3
343.51 K, 4012.3 kPa, x2 = 0.874
  mass density: 144.62 ± 2.6 kg/m3
343.52 K, 1167 kPa, x2 = 0.259
  mass density: 46.68 ± 0.36 kg/m3
343.52 K, 2146.2 kPa, x2 = 0.259
  mass density: 105.38 ± 1.4 kg/m3
343.54 K, 563.91 kPa, x2 = 0.259
  mass density: 20.69 ± 0.17 kg/m3
343.54 K, 833.17 kPa, x2 = 0.874
  mass density: 18.79 ± 0.22 kg/m3
343.54 K, 1209.2 kPa, x2 = 0.874
  mass density: 28.23 ± 0.32 kg/m3
343.55 K, 818.98 kPa, x2 = 0.259
  mass density: 31.08 ± 0.23 kg/m3
343.56 K, 570.8 kPa, x2 = 0.874
  mass density: 12.51 ± 0.15 kg/m3
348.39 K, 1850.8 kPa, x2 = 0.698
  mass density: 54.08 ± 0.51 kg/m3
348.42 K, 568.01 kPa, x2 = 0.449
  mass density: 17.95 ± 0.16 kg/m3
348.42 K, 1308.9 kPa, x2 = 0.698
  mass density: 36.01 ± 0.33 kg/m3
348.42 K, 2538.2 kPa, x2 = 0.698
  mass density: 81.23 ± 0.83 kg/m3
348.43 K, 695.54 kPa, x2 = 0.119
  mass density: 27.95 ± 0.15 kg/m3
348.43 K, 1196 kPa, x2 = 0.449
  mass density: 40.49 ± 0.37 kg/m3
348.43 K, 3289.2 kPa, x2 = 0.874
  mass density: 95.91 ± 1.1 kg/m3
348.44 K, 619.54 kPa, x2 = 0.698
  mass density: 15.96 ± 0.15 kg/m3
348.45 K, 906.67 kPa, x2 = 0.698
  mass density: 23.97 ± 0.21 kg/m3
348.45 K, 999.4 kPa, x2 = 0.119
  mass density: 41.99 ± 0.25 kg/m3
348.45 K, 1401.8 kPa, x2 = 0.119
  mass density: 63.11 ± 0.39 kg/m3
348.45 K, 1687.6 kPa, x2 = 0.449
  mass density: 60.87 ± 0.59 kg/m3
348.45 K, 1759.4 kPa, x2 = 0.874
  mass density: 42.38 ± 0.5 kg/m3
348.45 K, 1892.6 kPa, x2 = 0.119
  mass density: 94.85 ± 0.8 kg/m3
348.45 K, 2299.3 kPa, x2 = 0.449
  mass density: 91.46 ± 1 kg/m3
348.45 K, 2405.8 kPa, x2 = 0.119
  mass density: 142.61 ± 1.4 kg/m3
348.45 K, 3317.7 kPa, x2 = 0.698
  mass density: 121.94 ± 1.4 kg/m3
348.46 K, 573.31 kPa, x2 = 0.259
  mass density: 20.69 ± 0.17 kg/m3
348.46 K, 830.53 kPa, x2 = 0.449
  mass density: 26.96 ± 0.24 kg/m3
348.46 K, 1654.8 kPa, x2 = 0.259
  mass density: 70.07 ± 0.69 kg/m3
348.46 K, 2452 kPa, x2 = 0.874
  mass density: 63.66 ± 0.73 kg/m3
348.46 K, 2967.9 kPa, x2 = 0.449
  mass density: 137.38 ± 1.6 kg/m3
348.47 K, 833.57 kPa, x2 = 0.259
  mass density: 31.08 ± 0.23 kg/m3
348.47 K, 847.11 kPa, x2 = 0.874
  mass density: 18.79 ± 0.22 kg/m3
348.47 K, 1190.6 kPa, x2 = 0.259
  mass density: 46.68 ± 0.36 kg/m3
348.47 K, 2210.4 kPa, x2 = 0.259
  mass density: 105.36 ± 1.3 kg/m3
348.47 K, 4171.1 kPa, x2 = 0.874
  mass density: 144.45 ± 2.5 kg/m3
348.48 K, 1231.2 kPa, x2 = 0.874
  mass density: 28.22 ± 0.32 kg/m3
348.51 K, 579.9 kPa, x2 = 0.874
  mass density: 12.51 ± 0.15 kg/m3
353.35 K, 1889.8 kPa, x2 = 0.698
  mass density: 54.07 ± 0.51 kg/m3
353.37 K, 1218.4 kPa, x2 = 0.449
  mass density: 40.48 ± 0.37 kg/m3
353.37 K, 2601.9 kPa, x2 = 0.698
  mass density: 81.21 ± 0.82 kg/m3
353.38 K, 577.17 kPa, x2 = 0.449
  mass density: 17.94 ± 0.16 kg/m3
353.38 K, 1943.6 kPa, x2 = 0.119
  mass density: 94.8 ± 0.65 kg/m3
353.38 K, 3382.4 kPa, x2 = 0.874
  mass density: 95.84 ± 1.1 kg/m3
353.39 K, 629.39 kPa, x2 = 0.698
  mass density: 15.96 ± 0.15 kg/m3
353.39 K, 707.68 kPa, x2 = 0.119
  mass density: 27.94 ± 0.15 kg/m3
353.39 K, 922.11 kPa, x2 = 0.698
  mass density: 23.97 ± 0.21 kg/m3
353.39 K, 1432.5 kPa, x2 = 0.119
  mass density: 63.08 ± 0.38 kg/m3
353.39 K, 1723.8 kPa, x2 = 0.449
  mass density: 60.85 ± 0.59 kg/m3
353.39 K, 2359.1 kPa, x2 = 0.449
  mass density: 91.42 ± 1 kg/m3
353.39 K, 3068.7 kPa, x2 = 0.449
  mass density: 137.31 ± 1.6 kg/m3
353.4 K, 582.53 kPa, x2 = 0.259
  mass density: 20.69 ± 0.16 kg/m3
353.4 K, 844.78 kPa, x2 = 0.449
  mass density: 26.95 ± 0.24 kg/m3
353.4 K, 1018.6 kPa, x2 = 0.119
  mass density: 41.97 ± 0.24 kg/m3
353.4 K, 1333.5 kPa, x2 = 0.698
  mass density: 36 ± 0.33 kg/m3
353.4 K, 1794.1 kPa, x2 = 0.874
  mass density: 42.37 ± 0.49 kg/m3
353.4 K, 2493.2 kPa, x2 = 0.119
  mass density: 142.52 ± 1.3 kg/m3
353.4 K, 2508.3 kPa, x2 = 0.874
  mass density: 63.64 ± 0.73 kg/m3
353.4 K, 3424.3 kPa, x2 = 0.698
  mass density: 121.92 ± 1.8 kg/m3
353.41 K, 1213.9 kPa, x2 = 0.259
  mass density: 46.67 ± 0.35 kg/m3
353.41 K, 1693 kPa, x2 = 0.259
  mass density: 70.07 ± 0.66 kg/m3
353.41 K, 2895.5 kPa, x2 = 0.259
  mass density: 158.94 ± 2 kg/m3
353.41 K, 4232.8 kPa, x2 = 0.698
  mass density: 183.2 ± 2.6 kg/m3
353.41 K, 4326.6 kPa, x2 = 0.874
  mass density: 144.29 ± 2.5 kg/m3
353.42 K, 848.3 kPa, x2 = 0.259
  mass density: 31.07 ± 0.22 kg/m3

Reference: the NIST ThermoML archive (doi:10.1016/j.jct.2019.02.028)
